Test results reported in EP4745137A1 (Gluetacs Therapeutics (Shanghai) Co., Ltd., priority 2023, dated 2025).

Tests used:
WEE1 = molecular target: T1, WEE1 (Homo sapiens, UniProt P30291+Q96SW2); assay: Western-blot assay of substrate protein degradation in hPBMCs, WEE1; assay type: cell-based; conditions: 24 hours of compound treatment, compounds tested at 50 nM and 500 nM (concentration of the table not stated)
T1 construct: endogenous in cells; host or cells: hPBMCs (Milecell Biotechnologies)

IKZF1 = molecular target: T2, IKZF1 (Homo sapiens, UniProt Q13422+Q96SW2); assay: Western-blot assay of substrate protein degradation in hPBMCs, IKZF1; assay type: cell-based; conditions: 24 hours of compound treatment, compounds tested at 50 nM and 500 nM (concentration of the table not stated)
T2 construct: endogenous in cells; host or cells: hPBMCs (Milecell Biotechnologies)

IKZF2 = molecular target: T3, IKZF2 (Homo sapiens, UniProt Q96SW2+Q9UKS7); assay: Western-blot assay of substrate protein degradation in hPBMCs, IKZF2; assay type: cell-based; conditions: 24 hours of compound treatment, compounds tested at 50 nM and 500 nM (concentration of the table not stated)
T3 construct: endogenous in cells; host or cells: hPBMCs (Milecell Biotechnologies)

IKZF3 = molecular target: T4, IKZF3 (Homo sapiens, UniProt Q96SW2+Q9UKT9); assay: Western-blot assay of substrate protein degradation in hPBMCs, IKZF3; assay type: cell-based; conditions: 24 hours of compound treatment, compounds tested at 50 nM and 500 nM (concentration of the table not stated)
T4 construct: endogenous in cells; host or cells: hPBMCs (Milecell Biotechnologies)

CK1α = molecular target: T5, CK1α (Homo sapiens, UniProt P48729+Q96SW2); assay: Western-blot assay of substrate protein degradation in hPBMCs, CK1α; assay type: cell-based; conditions: 24 hours of compound treatment, compounds tested at 50 nM and 500 nM (concentration of the table not stated)
T5 construct: endogenous in cells; host or cells: hPBMCs (Milecell Biotechnologies)

GSPT1 = molecular target: T6, GSPT1 (Homo sapiens, UniProt P15170+Q96SW2); assay: Western-blot assay of substrate protein degradation in hPBMCs, GSPT1; assay type: cell-based; conditions: 24 hours of compound treatment, compounds tested at 50 nM and 500 nM (concentration of the table not stated)
T6 construct: endogenous in cells; host or cells: hPBMCs (Milecell Biotechnologies)

[1] = molecular target: T7, human Cereblon WT GST-tagged protein (Homo sapiens, UniProt Q96SW2); assay: CRBN-binding affinity by HTRF (CEREBLON BINDING kit); conditions: HTRF inhibitory activity, CEREBLON BINDING kit; read-out: HTRF IC50
T7 construct: purchased CISBIO 64BDCRBNPEH

SR = assay: Tumor cell proliferation inhibition (CellTiter-Meiluncell Luminescent Cell Viability Assay), SR; conditions: Homo sapiens, 96 h, read-out: inhibitory activity (IC50, nM) against tumor cells proliferation, SR
Vcap = assay: Tumor cell proliferation inhibition (CellTiter-Meiluncell Luminescent Cell Viability Assay), Vcap; conditions: Homo sapiens, 96 h, read-out: inhibitory activity (IC50, nM) against tumor cells proliferation, Vcap
MM.1R = assay: Tumor cell proliferation inhibition (CellTiter-Meiluncell Luminescent Cell Viability Assay), MM.1R; conditions: Homo sapiens, 96 h, read-out: inhibitory activity (IC50, nM) against tumor cells proliferation, MM.1R
SW620 = assay: Tumor cell proliferation inhibition (CellTiter-Meiluncell Luminescent Cell Viability Assay), SW620; conditions: Homo sapiens, SW-620, 96 h, read-out: inhibitory activity (IC50, nM) against tumor cells proliferation, SW620
Method: (§1) The tumor cells used herein were cultured in a cell culture medium listed in table 2 at 37°C in an incubator with 5% CO2. Prior to experimentation, all cell lines used were correctly identified by STR profiling, and tested negative for mycoplasma contamination using a mycoplasma detection kit through routine screenings.
(§2) On the following day, the test compounds of the present disclosure were subjected to serial dilution. […] Subsequently, 0.5 µL of the test compound dilution was transferred into the 96-well plate containing the cells, with each well containing 100 µL of cell culture medium. […] Into the 96-well plate, the diluted test compounds and corresponding detection reagents were added, resulting in final test compound concentrations of 500 nM and 10 nM, respectively. The experimental procedure is described below using the diluted 2 µM test compound as an example.
(§3) After the cells were treated with the compounds of the present disclosure for a specified period (the treatment durations were shown in Table 3), the cell viability assay reagent was added to the culture medium according to the kit's instructions to determine cell viability. […] All controls were treated using the same procedure as the compounds of the present disclosure. The growth inhibition curves for the compounds of the present disclosure were plotted using Prism GraphPad software, and the IC50 values were calculated therefrom.

Jurkat = assay: Tumor cell proliferation inhibition (CellTiter-Meiluncell Luminescent Cell Viability Assay), Jurkat; conditions: Homo sapiens, 96 h, read-out: inhibitory activity (IC50, nM) against tumor cells proliferation, Jurkat
CAL-62 = assay: Tumor cell proliferation inhibition (CellTiter-Meiluncell Luminescent Cell Viability Assay), CAL-62; conditions: Homo sapiens, CAL-62, 96 h, read-out: inhibitory activity (IC50, nM) against tumor cells proliferation, CAL-62
Method: as §1, §2, §3

[2] = tested on: Human acute T lymphocytic leukemia cells (Molt-4); assay: Tumor cell proliferation inhibition (CellTiter-Meiluncell Luminescent Cell Viability Assay), Molt-4; conditions: MOLT-4, 96 h, read-out: inhibitory activity (IC50, nM) against tumor cells proliferation, Molt 4
Method: as §1, §2, §3

MGC803 = assay: Tumor cell proliferation inhibition (CellTiter-Meiluncell Luminescent Cell Viability Assay), MGC803; conditions: Homo sapiens, MGC-803, 96 h, read-out: inhibitory activity (IC50, nM) against tumor cells proliferation, MGC803
CCRF-CEM = assay: Tumor cell proliferation inhibition (CellTiter-Meiluncell Luminescent Cell Viability Assay), CCRF-CEM; conditions: Homo sapiens, 96 h, read-out: inhibitory activity (IC50, nM) against tumor cells proliferation, CCRF-CEM
NCI-H1975 = assay: Tumor cell proliferation inhibition (CellTiter-Meiluncell Luminescent Cell Viability Assay), NCI-H1975; conditions: Homo sapiens, NCI-H1975, 96 h, read-out: inhibitory activity (IC50, nM) against tumor cells proliferation, H1975
[3] = tested on: Human breast cancer cells (MDA-MB-231); assay: Tumor cell proliferation inhibition (CellTiter-Meiluncell Luminescent Cell Viability Assay), MDA-MB-231; conditions: MDA-MB-231, 96 h, read-out: inhibitory activity (IC50, nM) against tumor cells proliferation, MDA-MB-231

T7 sequence (Q96SW2 whole entry): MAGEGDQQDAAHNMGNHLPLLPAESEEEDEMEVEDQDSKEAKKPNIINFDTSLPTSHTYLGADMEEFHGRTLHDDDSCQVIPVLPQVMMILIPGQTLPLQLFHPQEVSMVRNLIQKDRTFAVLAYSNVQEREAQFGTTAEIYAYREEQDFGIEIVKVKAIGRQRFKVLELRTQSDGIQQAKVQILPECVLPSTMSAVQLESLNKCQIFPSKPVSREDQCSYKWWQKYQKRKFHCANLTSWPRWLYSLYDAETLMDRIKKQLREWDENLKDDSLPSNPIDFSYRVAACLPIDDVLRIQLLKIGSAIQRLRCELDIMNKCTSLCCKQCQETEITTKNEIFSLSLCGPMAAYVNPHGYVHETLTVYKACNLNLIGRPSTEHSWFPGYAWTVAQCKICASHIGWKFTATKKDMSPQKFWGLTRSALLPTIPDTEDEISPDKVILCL
T1 sequence (P30291 whole entry): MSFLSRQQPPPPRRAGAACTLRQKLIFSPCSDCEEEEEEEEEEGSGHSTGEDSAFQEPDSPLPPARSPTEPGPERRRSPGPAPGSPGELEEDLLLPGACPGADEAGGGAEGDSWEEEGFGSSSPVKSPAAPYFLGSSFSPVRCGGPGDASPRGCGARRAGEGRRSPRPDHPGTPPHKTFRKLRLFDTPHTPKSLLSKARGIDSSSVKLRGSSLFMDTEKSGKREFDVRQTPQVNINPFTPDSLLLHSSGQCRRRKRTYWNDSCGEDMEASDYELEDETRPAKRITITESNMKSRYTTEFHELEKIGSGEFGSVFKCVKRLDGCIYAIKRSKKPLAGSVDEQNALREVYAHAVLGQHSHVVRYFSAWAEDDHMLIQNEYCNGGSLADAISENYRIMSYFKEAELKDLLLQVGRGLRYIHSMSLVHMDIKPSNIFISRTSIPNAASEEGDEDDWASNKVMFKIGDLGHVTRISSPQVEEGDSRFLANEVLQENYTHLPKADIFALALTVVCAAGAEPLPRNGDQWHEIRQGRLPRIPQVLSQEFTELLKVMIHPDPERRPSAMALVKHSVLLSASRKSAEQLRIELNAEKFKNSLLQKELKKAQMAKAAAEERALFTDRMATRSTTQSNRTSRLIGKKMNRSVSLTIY
T1 sequence (Q96SW2 whole entry): as the sequence (Q96SW2 whole entry) above
T1 sequence (Q16531 whole entry partner): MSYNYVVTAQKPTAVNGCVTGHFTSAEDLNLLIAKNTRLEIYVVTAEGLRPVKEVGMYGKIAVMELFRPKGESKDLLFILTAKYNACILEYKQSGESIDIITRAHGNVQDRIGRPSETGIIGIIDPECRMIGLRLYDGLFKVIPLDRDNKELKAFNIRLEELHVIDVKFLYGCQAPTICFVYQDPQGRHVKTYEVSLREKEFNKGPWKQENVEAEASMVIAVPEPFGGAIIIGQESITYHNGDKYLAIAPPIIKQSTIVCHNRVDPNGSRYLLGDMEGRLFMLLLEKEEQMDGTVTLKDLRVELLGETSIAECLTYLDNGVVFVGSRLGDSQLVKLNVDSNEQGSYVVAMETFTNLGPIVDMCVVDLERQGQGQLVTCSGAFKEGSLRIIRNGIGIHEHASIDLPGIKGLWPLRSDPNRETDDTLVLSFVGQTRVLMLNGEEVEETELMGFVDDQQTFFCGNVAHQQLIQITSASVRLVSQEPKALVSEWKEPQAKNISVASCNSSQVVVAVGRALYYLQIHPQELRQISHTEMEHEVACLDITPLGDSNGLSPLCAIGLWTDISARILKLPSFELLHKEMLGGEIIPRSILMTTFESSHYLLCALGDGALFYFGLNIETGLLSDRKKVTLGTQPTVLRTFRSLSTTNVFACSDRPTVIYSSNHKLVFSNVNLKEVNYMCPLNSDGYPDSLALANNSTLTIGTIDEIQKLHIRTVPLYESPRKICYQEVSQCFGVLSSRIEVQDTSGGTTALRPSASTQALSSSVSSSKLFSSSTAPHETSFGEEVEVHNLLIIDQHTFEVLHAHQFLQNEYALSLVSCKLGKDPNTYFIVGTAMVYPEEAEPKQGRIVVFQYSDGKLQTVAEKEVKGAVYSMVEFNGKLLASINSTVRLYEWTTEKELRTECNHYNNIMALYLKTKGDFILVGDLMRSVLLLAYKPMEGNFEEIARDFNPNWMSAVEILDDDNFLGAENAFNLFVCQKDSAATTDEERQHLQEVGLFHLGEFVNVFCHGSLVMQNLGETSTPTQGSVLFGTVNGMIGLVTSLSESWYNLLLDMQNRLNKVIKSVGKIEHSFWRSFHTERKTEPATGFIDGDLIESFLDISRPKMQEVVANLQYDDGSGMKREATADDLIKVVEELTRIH
T5 sequence (P48729 whole entry): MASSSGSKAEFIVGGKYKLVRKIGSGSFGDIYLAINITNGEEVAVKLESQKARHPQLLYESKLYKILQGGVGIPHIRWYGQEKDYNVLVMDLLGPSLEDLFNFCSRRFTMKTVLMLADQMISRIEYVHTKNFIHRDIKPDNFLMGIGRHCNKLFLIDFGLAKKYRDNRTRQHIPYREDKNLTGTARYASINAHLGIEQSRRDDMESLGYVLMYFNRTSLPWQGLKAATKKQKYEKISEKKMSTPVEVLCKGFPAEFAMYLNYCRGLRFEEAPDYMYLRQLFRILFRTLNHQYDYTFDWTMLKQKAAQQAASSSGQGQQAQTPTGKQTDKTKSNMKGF
T5 sequence (Q96SW2 whole entry): as the sequence (Q96SW2 whole entry) above
T5 sequence (Q16531 whole entry partner): as the sequence (Q16531 whole entry partner) above
T3 sequence (Q9UKS7 whole entry): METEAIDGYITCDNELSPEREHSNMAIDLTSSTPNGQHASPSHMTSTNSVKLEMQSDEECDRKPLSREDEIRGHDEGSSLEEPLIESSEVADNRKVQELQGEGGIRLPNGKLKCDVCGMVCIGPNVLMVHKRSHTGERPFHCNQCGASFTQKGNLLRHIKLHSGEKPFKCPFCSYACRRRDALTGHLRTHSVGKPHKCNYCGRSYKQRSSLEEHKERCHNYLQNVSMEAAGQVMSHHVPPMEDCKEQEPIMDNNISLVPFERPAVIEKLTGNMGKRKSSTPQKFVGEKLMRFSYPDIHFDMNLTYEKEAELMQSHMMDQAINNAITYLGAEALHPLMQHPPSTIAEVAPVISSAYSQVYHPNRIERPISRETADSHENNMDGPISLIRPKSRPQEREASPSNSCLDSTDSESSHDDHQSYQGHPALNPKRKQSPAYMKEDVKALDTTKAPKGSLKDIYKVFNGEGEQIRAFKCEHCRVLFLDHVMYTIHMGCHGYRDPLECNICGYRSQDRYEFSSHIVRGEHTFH
T3 sequence (Q96SW2 whole entry): as the sequence (Q96SW2 whole entry) above
T3 sequence (Q16531 whole entry partner): as the sequence (Q16531 whole entry partner) above
T4 sequence (Q9UKT9 whole entry): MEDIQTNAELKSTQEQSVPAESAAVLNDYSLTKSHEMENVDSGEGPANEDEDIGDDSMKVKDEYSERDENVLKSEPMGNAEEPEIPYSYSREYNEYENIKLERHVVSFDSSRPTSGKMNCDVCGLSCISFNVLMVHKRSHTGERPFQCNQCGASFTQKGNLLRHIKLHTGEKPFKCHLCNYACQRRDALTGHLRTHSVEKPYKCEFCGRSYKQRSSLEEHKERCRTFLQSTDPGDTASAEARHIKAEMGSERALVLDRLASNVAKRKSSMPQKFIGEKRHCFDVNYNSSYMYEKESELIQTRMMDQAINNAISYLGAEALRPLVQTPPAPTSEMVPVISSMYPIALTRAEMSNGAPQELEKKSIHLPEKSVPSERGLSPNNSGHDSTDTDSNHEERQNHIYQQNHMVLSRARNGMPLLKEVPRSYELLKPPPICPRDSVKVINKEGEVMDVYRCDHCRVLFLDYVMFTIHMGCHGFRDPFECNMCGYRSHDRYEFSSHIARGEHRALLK
T4 sequence (Q96SW2 whole entry): as the sequence (Q96SW2 whole entry) above
T4 sequence (Q16531 whole entry partner): as the sequence (Q16531 whole entry partner) above
T2 sequence (Q13422 whole entry): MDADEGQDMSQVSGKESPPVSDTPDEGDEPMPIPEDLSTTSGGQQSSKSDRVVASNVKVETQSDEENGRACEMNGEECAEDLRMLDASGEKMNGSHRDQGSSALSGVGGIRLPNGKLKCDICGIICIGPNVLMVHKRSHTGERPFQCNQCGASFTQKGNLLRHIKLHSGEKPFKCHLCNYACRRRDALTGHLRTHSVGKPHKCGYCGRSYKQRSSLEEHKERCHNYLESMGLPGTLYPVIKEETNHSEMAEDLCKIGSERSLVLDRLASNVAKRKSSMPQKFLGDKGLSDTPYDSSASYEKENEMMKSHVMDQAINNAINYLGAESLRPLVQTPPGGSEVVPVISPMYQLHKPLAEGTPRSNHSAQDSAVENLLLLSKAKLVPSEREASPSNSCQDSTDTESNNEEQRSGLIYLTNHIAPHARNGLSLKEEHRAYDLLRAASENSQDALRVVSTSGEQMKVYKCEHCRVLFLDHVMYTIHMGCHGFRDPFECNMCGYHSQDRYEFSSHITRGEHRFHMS
T2 sequence (Q96SW2 whole entry): as the sequence (Q96SW2 whole entry) above
T2 sequence (Q16531 whole entry partner): as the sequence (Q16531 whole entry partner) above

Structure (SMILES)	IC50 [1] [nM]	IC50 (SR) [nM]	IC50 (Vcap) [nM]	IC50 (MM.1R) [nM]	IC50 (SW620) [nM]	IC50 (Jurkat) [nM]	IC50 (CAL-62) [nM]	IC50 [2] [nM]	IC50 (MGC803) [nM]	IC50 (CCRF-CEM) [nM]	IC50 (NCI-H1975) [nM]	IC50 [3] [nM]	Weel substrate protein remaining % (WEE1)	IKZF 1 substrate protein remaining % (IKZF1)	IKZF2 substrate protein remaining % (IKZF2)	IKZF3 substrate protein remaining % (IKZF3)	CK1a substrate protein remaining % (CK1α)	GSPT1 substrate protein remaining % (GSPT1)
O=C1CCC(N2Cc3cc(CN4CC=C(c5cccs5)CC4)ccc3C2=O)C(=O)N1 (stereo not drawn) [GT-04494, 3-(1-oxo-5-((4-(thiophen-2-yl)-3,6-dihydropyridin-1(2H)-yl)methyl)isoindolin-2-yl)piperidine-2,6-dione]	< 500	5 to 10	1 to 5	< 1	5 to 10	< 1	1 to 5	1 to 5	10 to 50	1 to 5	10 to 50	10 to 50	A (0% ≤ substrate protein remaining % ≤ 80%)	B (80%< substrate protein remaining %≤ 100%)	A (0% ≤ substrate protein remaining % ≤ 80%)	B (80%< substrate protein remaining %≤ 100%)	A (0% ≤ substrate protein remaining % ≤ 80%)	A (0% ≤ substrate protein remaining % ≤ 80%)
O=C1CCC(N2Cc3cc(CN4CCN(c5cc(F)cc(F)c5)CC4)ccc3C2=O)C(=O)N1 (stereo not drawn) [GT-04496, 3-(5-((4-(3,5-difluorophenyl)piperazin-1-yl)methyl)-1-oxoisoindolin-2-yl)piperidine-2,6-dione]	500 to 1000	100 to 500	10 to 50	10 to 50	100 to 500	5 to 10	10 to 50	5 to 10	100 to 500	5 to 10	100 to 500	100 to 500	B (80%< substrate protein remaining %≤ 100%)	B (80%< substrate protein remaining %≤ 100%)	A (0% ≤ substrate protein remaining % ≤ 80%)	B (80%< substrate protein remaining %≤ 100%)	A (0% ≤ substrate protein remaining % ≤ 80%)	A (0% ≤ substrate protein remaining % ≤ 80%)
Cc1cscc1C1=CCN(Cc2ccc3c(c2)CN(C2CCC(=O)NC2=O)C3=O)CC1 (stereo not drawn) [GT-04503, 3-(5-((4-(4-methylthiophen-3-yl)-3,6-dihydropyridin-1(2H)-yl)methyl)-1-oxoisoindolin-2-yl)piperidine-2,6-dione]	< 500	1 to 5	1 to 5	1 to 5	1 to 5	< 1	< 1	< 1	5 to 10	< 1	1 to 5	1 to 5	A (0% ≤ substrate protein remaining % ≤ 80%)	A (0% ≤ substrate protein remaining % ≤ 80%)	A (0% ≤ substrate protein remaining % ≤ 80%)	A (0% ≤ substrate protein remaining % ≤ 80%)	A (0% ≤ substrate protein remaining % ≤ 80%)	A (0% ≤ substrate protein remaining % ≤ 80%)

Continued, in another order:

IC50 [1] [nM]	IC50 (SR) [nM]	IC50 (Vcap) [nM]	IC50 (MM.1R) [nM]	IC50 (SW620) [nM]	IC50 (Jurkat) [nM]	IC50 (CAL-62) [nM]	IC50 [2] [nM]	IC50 (MGC803) [nM]	IC50 (CCRF-CEM) [nM]	IC50 (NCI-H1975) [nM]	IC50 [3] [nM]	Structure (SMILES)	Weel substrate protein remaining % (WEE1)	IKZF 1 substrate protein remaining % (IKZF1)	IKZF2 substrate protein remaining % (IKZF2)	IKZF3 substrate protein remaining % (IKZF3)	CK1a substrate protein remaining % (CK1α)	GSPT1 substrate protein remaining % (GSPT1)
500 to 1000	10 to 50	5 to 10	1 to 5	10 to 50	1 to 5	1 to 5	1 to 5	10 to 50	1 to 5	10 to 50	10 to 50	O=C1CCC(N2Cc3cc(CN4CCN(c5cccc(Br)c5)CC4)ccc3C2=O)C(=O)N1 (stereo not drawn) [GT-04467, 3-(5-((4-(3-bromophenyl)piperazin-1-yl)methyl)-1-oxoisoindolin-2-yl)piperidine-2,6-dione]	A (0% ≤ substrate protein remaining % ≤ 80%)	A (0% ≤ substrate protein remaining % ≤ 80%)	A (0% ≤ substrate protein remaining % ≤ 80%)	A (0% ≤ substrate protein remaining % ≤ 80%)	A (0% ≤ substrate protein remaining % ≤ 80%)	A (0% ≤ substrate protein remaining % ≤ 80%)
500 to 1000	100 to 500	10 to 50	10 to 50	100 to 500	5 to 10	10 to 50	5 to 10	50 to 100	5 to 10	50 to 100	100 to 500	O=C1CCC(N2Cc3cc(CN4CCN(c5cc(Cl)ccc5Cl)CC4)ccc3C2=O)C(=O)N1 (stereo not drawn) [GT-04487, 3-(5-((4-(2,5-dichlorophenyl)piperazin-1-yl)methyl)-1-oxoisoindolin-2-yl)piperidine-2,6-dione]	B (80%< substrate protein remaining %≤ 100%)	B (80%< substrate protein remaining %≤ 100%)	A (0% ≤ substrate protein remaining % ≤ 80%)	B (80%< substrate protein remaining %≤ 100%)	A (0% ≤ substrate protein remaining % ≤ 80%)	A (0% ≤ substrate protein remaining % ≤ 80%)
500 to 1000	100 to 500	10 to 50	10 to 50	100 to 500	5 to 10	10 to 50	5 to 10	500 to 1000	5 to 10	100 to 500	100 to 500	Cc1cc(Cl)cc(N2CCN(Cc3ccc4c(c3)CN(C3CCC(=O)NC3=O)C4=O)CC2)n1 (stereo not drawn) [GT-04491, 3-(5-((4-(4-chloro-6-methylpyridin-2-yl)piperazin-1-yl)methyl)-1-oxoisoindolin-2-yl)piperidine-2,6-dione]	B (80%< substrate protein remaining %≤ 100%)	B (80%< substrate protein remaining %≤ 100%)	A (0% ≤ substrate protein remaining % ≤ 80%)	B (80%< substrate protein remaining %≤ 100%)	A (0% ≤ substrate protein remaining % ≤ 80%)	A (0% ≤ substrate protein remaining % ≤ 80%)
500 to 1000	10 to 50	5 to 10	1 to 5	10 to 50	1 to 5	1 to 5	1 to 5	50 to 100	1 to 5	10 to 50	10 to 50	O=C1CCC(N2Cc3cc(CN4CCN(c5cccc(Cl)n5)CC4)ccc3C2=O)C(=O)N1 (stereo not drawn) [GT-04497, 3-(5-((4-(6-chloropyridin-2-yl)piperazin-1-yl)methyl)-1-oxoisoindolin-2-yl)piperidine-2,6-dione]	A (0% ≤ substrate protein remaining % ≤ 80%)	A (0% ≤ substrate protein remaining % ≤ 80%)	A (0% ≤ substrate protein remaining % ≤ 80%)	A (0% ≤ substrate protein remaining % ≤ 80%)	A (0% ≤ substrate protein remaining % ≤ 80%)	A (0% ≤ substrate protein remaining % ≤ 80%)
